pIC50: −log10 of the molar value. Where “and” joins values, the source holds several entries; their conditions need not be identical. Equal values may be shown once. Read-outs that look alike come from different tables or passages of the source.
Experiments:
[1] = tested on: GPR55; design: method as in PubChem AID 2013; details: image-based HTS; ref PubChem AID 2013; read-out: IC50 value as GPR55 antagonist; cited from earlier work
[2] = Pharmacokinetic analysis in mouse plasma and brain after a single i.p. injection; assay type: in vivo
Description: A pharmacokinetic study was conducted for CID2921524 (MolPort; Riga, LVA) to determine the target experimental time point for the hyperthermia-induced seizure protocol. Male and female wildtype mice (P21-28) received a single intraperitoneal (i.p.) injection of 10 mg/kg CID2921524 in ethanol-Tween 80-saline (1:1:18) with an injection volume of 10 mL/kg. At selected time points, mice were anaesthetized with isoflurane and whole blood was collected via cardiac puncture. Plasma was isolated by centrifugation, whole brain was also collected and samples were stored at -80°C until assayed.
Plasma and brain samples were prepared for analysis of CID2921524 concentrations as previously described. Samples were assayed by LC-MS/MS using a Shimadzu Nexera ultra-HPLD coupled to a Shimadzu 8030 triple quadrupole mass spectrometer (Shimadzu Corp.; Kyoto, JPN) operated in positive electrospray ionization mode with multiple reaction monitoring with 376.3 > 121.1 and 376.2 > 77.0 mass transition pairs. Quantification was achieved by comparing experimental samples to standards prepared with known amounts of drug.
(§1) Normality of each dataset was assessed using the Shapiro-Wilk test. Concentrations of CID2921524 in plasma and brain at each time point were averaged and pharmacokinetic parameters were calculated by noncompartmental analysis as previously described. Seizure threshold temperatures were compared using Mantel-Cox logrank test. Spontaneous seizure data were analysed using two-way ANOVA (seizure frequency and seizure severity), Fisher’s exact test (proportion of mice seizure-free) or Mantel-Cox logrank test (survival). RT-ddPCR data were analysed using two-way ANOVA. All results p < 0.05 were considered statistically significant.

[3] = tested on: F1.Scn1a+/- mice; experiment: Hyperthermia-induced seizures in F1.Scn1a+/- mouse model of Dravet syndrome; assay type: in vivo; design: key to Threshold temperature of individual mice for GTCS induced by hyperthermia: core body temperature in °C at first clonic convulsion
Description: Hyperthermia-induced seizure experiments were conducted on male and female F1.Scn1a^+/- and F1.Scn1a^+/-;Gpr55^+/- mice at P14-16 as previously described. Briefly, a RET-3 rectal temperature probe was inserted and mice acclimated for 5 min before mouse core body temperature was elevated 0.5°C every 2 min until the onset of first clonic convulsion with loss of posture or until 42.5°C was reached. For hyperthermia-induced seizure experiments with CID2921524, mice received a single i.p. injection of vehicle or CID2921524 at an injection volume of 10 mL/kg following the 5 min acclimation period.
as §1

[4] = design: method as in PMID 28973916; details: cited from earlier work
[5] = both sexes, brain, intraperitoneal, wildtype mice P21-28, 10 mg/kg i.p., n = 4, read-out: Brain concentration, average
[6] = both sexes, plasma, intraperitoneal, wildtype mice P21-28, 10 mg/kg i.p., n = 4, read-out: Plasma concentration, average

COc1ccc(CNCCC(c2ccccc2)c2ccc3c(c2)OCO3)cc1 (centres unmarked) [CID2921524]
pIC50 [1]: 6.02
brain penetrance ([2]; 10 mg/kg i.p.): brain penetrant
total concentration achieved in the brain ([2]; 10 mg/kg i.p., free-fraction unknown): ~ 5 μM
Kp ([2]; both sexes, brain and plasma, ip, 10 mg/kg i.p., read-out: brain-plasma ratio (total exposure by AUC values)): 1.4
concentration at 15 min [2, 5]: 1820 ng/g
concentration at 30 min [2, 5]: 1530 ng/g
concentration at 60 min [2, 5]: 1210 ng/g
concentration at 90 min [2, 5]: 1310 ng/g
concentration at 120 min [2, 5]: 1550 ng/g
concentration at 15 min [2, 6]: 1960 ng/mL
concentration at 30 min [2, 6]: 1420 ng/mL
concentration at 45 min ([2]; both sexes, plasma, intraperitoneal, wildtype mice P21-28, 10 mg/kg i.p., 45 min, n = 4): 1400 ng/mL
concentration at 60 min [2, 6]: 1370 ng/mL
concentration at 90 min [2, 6]: 1020 ng/mL
concentration at 120 min [2, 6]: 1090 ng/mL
absorption into plasma and brain ([2]; i.p. administration): rapidly absorbed
half-lives in plasma and brain ([2]; i.p. administration): relatively long half-lives
Threshold temperature of individual mice for GTCS induced by hyperthermia ([3]; F1.Scn1a+/- mice P14-16, male and female, 10 mg/kg i.p. acute, one value per mouse, n = 12, core body temperature (°C), 10 mg/kg, in °C): 41.2 and 40.3 and 40.2 and 40.8 and 41.5 and 40.7 and 38.9 and 39.9 and 41 and 40.6 and 39.6
effect on a hyperthermia-induced seizure (GTCS temperature threshold) ([3]; F1.Scn1a+/- mice, 10 mg/kg i.p. vs vehicle, Mantel-Cox logrank): no effect

CCOc1ccc(N(CC)C(=O)c2nn(-c3ccc(OC)cc3)c(=O)c3c2c2ccccc2n3C)cc1 [CID16020064]
brain penetrance [4]: not brain penetrant

Reference: article PMC9879440, “Heterozygous deletion of Gpr55 does not affect a hyperthermia-induced seizure, spontaneous seizures or survival in the Scn1a^+/^- mouse model of Dravet syndrome” (PLOS ONE, 2023)
